This is an account of results in PMC5543065, “Mechanistic and structural basis for activation of cardiac myosin force production by omecamtiv mecarbil” (Nature Communications, 2017).

The test concerns the target T1, bovine β-cardiac myosin S1 fragment (cardiac myosin, MYH7) (Bos taurus, UniProt Q9BE39).
T1 construct: Subfragment-1 (S1), AA 1–840; with MYL3 (Uniprot P85100)
Briefly: ITC; crystal structure at […] Å; SAXS. Conditions: read-out: Nucleotide state / ADP-VO4 (n = 5). Format: binding. (In ITC the heat of successive injections is recorded.)

T1 sequence (Q9BE39 1-840): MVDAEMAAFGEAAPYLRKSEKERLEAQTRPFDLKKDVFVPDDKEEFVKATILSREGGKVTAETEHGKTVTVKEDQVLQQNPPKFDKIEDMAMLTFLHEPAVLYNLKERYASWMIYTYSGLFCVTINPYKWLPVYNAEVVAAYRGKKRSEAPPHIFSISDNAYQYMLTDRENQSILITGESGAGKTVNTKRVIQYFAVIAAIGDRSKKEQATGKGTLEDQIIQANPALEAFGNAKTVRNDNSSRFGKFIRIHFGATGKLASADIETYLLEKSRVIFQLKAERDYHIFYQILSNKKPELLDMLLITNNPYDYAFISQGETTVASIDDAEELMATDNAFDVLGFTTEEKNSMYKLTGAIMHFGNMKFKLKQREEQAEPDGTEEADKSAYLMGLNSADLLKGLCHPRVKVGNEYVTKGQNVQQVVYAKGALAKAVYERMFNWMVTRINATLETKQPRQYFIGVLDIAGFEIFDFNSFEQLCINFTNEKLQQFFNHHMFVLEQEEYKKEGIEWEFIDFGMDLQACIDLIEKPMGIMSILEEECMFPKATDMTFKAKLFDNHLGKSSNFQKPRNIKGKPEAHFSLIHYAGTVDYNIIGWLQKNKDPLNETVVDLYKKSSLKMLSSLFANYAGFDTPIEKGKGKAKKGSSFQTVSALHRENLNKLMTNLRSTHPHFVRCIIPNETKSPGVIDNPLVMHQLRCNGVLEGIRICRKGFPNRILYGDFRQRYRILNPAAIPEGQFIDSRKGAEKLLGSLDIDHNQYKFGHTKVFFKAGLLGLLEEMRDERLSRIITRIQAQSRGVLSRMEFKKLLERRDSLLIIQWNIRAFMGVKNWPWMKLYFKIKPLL
T1 sequence (P85100 2-199 partner): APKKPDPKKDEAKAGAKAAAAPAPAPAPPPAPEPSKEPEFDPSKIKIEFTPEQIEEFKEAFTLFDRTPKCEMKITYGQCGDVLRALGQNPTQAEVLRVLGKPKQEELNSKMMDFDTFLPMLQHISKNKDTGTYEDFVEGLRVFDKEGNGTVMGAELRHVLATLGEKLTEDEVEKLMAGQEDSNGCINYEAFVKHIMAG

As for `COC(=O)N1CCN(Cc2cccc(NC(=O)Nc3ccc(C)nc3)c2F)CC1` [OM, Omecamtiv mecarbil], the Kd was 290 ± 40 nM.
